Reference: patent publication US20110237600A1, “COMPOUNDS FOR IMPROVING LEARNING AND MEMORY” (AMNESTIX, INC., priority 2008, published 2011)
One block for each compound: values may come before it.

Columns and labels:
[1] = test system: undifferentiated PC12 cells; details: Zhang et al., Cell Mol Biol Lett., 2006; cited from earlier work
[2] = molecular target: T1, AURKC (Homo sapiens, UniProt Q9UQB9); experiment: KinomeScan active-site dependent competition binding assay; details: 10 μM concentration
T1 construct: purchased Ambit
From the text: (§1) Active-site dependent competition binding assays can be performed with hundreds of known kinases in parallel (Fabian et al., Nat Biotechnol. 2005, 23, 329; Karaman et al., Nat Biotechnol. 2008, 26, 127) in order to determine how compounds bind to both intended and unintended kinases. Such methods allow the assessment of the specificity of a kinase inhibitor.
(§2) Based on a competition binding assay that quantitatively measures the ability of a test compound to compete with an immobilized, active-site directed ligand it is possible to scan the competitive effect of the test compound for a broad variety of kinases in parallel (KinomeScan, Ambit, San Diego, Calif., USA; Fabian et al., Nat Biotechnol. 2005, 23, 329). Based on this analysis it is possible to assess the inhibitory specificity of a test compound. The assay was performed with 1-(8-cyclohexyl-5 isoquinoline-sulfonyl) 2-methyl-piperazine in 10 μM concentration. As result of the assay one obtains the percentage of competition of the active-site directed ligand for each of the over 400 kinases of the test due to the incubation with the test compounds. FIG. 3 lists the kinases ranked according to their binding to 1-(8-cyclohexyl-5 isoquinoline-sulfonyl) 2-methyl-piperazine (compound A). Strong binding (more than 50%) of 1-(8-cyclohexyl-5 isoquinoline-sulfonyl) 2-methyl-piperazine is found only for the kinases CSNK1E, CSNK1A1L, CSNK1D, MERTK, SLK, IRAK1, STK10, MAPK12, PHKG2, MAPK11, MET, AXL, STK32B, AURKC, CLK3, RPS6KA6, PDGFRB, KDR, CDK2.

[3] = molecular target: T2, AXL (Homo sapiens, UniProt P30530); experiment: as above; details: 10 μM concentration
T2 construct: purchased Ambit
From the text: as §1, §2

[4] = molecular target: T3, CDK2 (Homo sapiens, UniProt P24941); experiment: as above; details: 10 μM concentration
T3 construct: purchased Ambit
From the text: as §1, §2

[5] = molecular target: T4, CLK3 (Homo sapiens, UniProt P49761); experiment: as above; details: 10 μM concentration
T4 construct: purchased Ambit
From the text: as §1, §2

[6] = molecular target: T5, CSNK1A1L (Homo sapiens, UniProt Q8N752); experiment: as above; details: 10 μM concentration
T5 construct: purchased Ambit
From the text: as §1, §2

[7] = molecular target: T6, CSNK1D (Homo sapiens, UniProt P48730); experiment: as above; details: 10 μM concentration
T6 construct: purchased Ambit
From the text: as §1, §2

[8] = molecular target: T7, CSNK1E (Homo sapiens, UniProt P49674); experiment: as above; details: 10 μM concentration
T7 construct: purchased Ambit
From the text: as §1, §2

[9] = molecular target: T8, IRAK1 (Homo sapiens, UniProt P51617); experiment: as above; details: 10 μM concentration
T8 construct: purchased Ambit
From the text: as §1, §2

[10] = molecular target: T9, KDR (Homo sapiens, UniProt P35968); experiment: as above; details: 10 μM concentration
T9 construct: purchased Ambit
From the text: as §1, §2

[11] = molecular target: T10, MAPK11 (Homo sapiens, UniProt Q15759); experiment: as above; details: 10 μM concentration
T10 construct: purchased Ambit
From the text: as §1, §2

[12] = molecular target: T11, MAPK12 (Homo sapiens, UniProt P53778); experiment: as above; details: 10 μM concentration
T11 construct: purchased Ambit
From the text: as §1, §2

[13] = molecular target: T12, MERTK (Homo sapiens, UniProt Q12866); experiment: as above; details: 10 μM concentration
T12 construct: purchased Ambit
From the text: as §1, §2

[14] = molecular target: T13, MET (Homo sapiens, UniProt P08581); experiment: as above; details: 10 μM concentration
T13 construct: purchased Ambit
From the text: as §1, §2

[15] = molecular target: T14, PDGFRB (Homo sapiens, UniProt P09619); experiment: as above; details: 10 μM concentration
T14 construct: purchased Ambit
From the text: as §1, §2

[16] = molecular target: T15, PHKG2 (Homo sapiens, UniProt P15735); experiment: as above; details: 10 μM concentration
T15 construct: purchased Ambit
From the text: as §1, §2

[17] = molecular target: T16, RPS6KA6 (Homo sapiens, UniProt Q9UK32); experiment: as above; details: 10 μM concentration
T16 construct: purchased Ambit
From the text: as §1, §2

[18] = molecular target: T17, SLK (Homo sapiens, UniProt Q9H2G2); experiment: as above; details: 10 μM concentration
T17 construct: purchased Ambit
From the text: as §1, §2

[19] = molecular target: T18, STK10 (Homo sapiens, UniProt O94804); experiment: as above; details: 10 μM concentration
T18 construct: purchased Ambit
From the text: as §1, §2

[20] = molecular target: T19, STK32B (Homo sapiens, UniProt Q9NY57); experiment: as above; details: 10 μM concentration
T19 construct: purchased Ambit
From the text: as §1, §2

[21] = test system: over 400 kinases; experiment: Kinase specificity analysis (KinomeScan panel); details: 10 μM concentration; strong binding (more than 50%) for 19 kinases only
From the text: as §1
as §2, with “Strong binding (more than 50%) of 1-(8-cyclohexyl-5 isoquinoline-sulfonyl) 2-methyl-piperazine is found only for the kinases CSNK1E, CSNK1A1L, CSNK1D, MERTK, SLK, IRAK1, STK10, MAPK12, PHKG2, MAPK11, MET, AXL, STK32B, AURKC, CLK3, RPS6KA6, PDGFRB, KDR, CDK2.” left out

[22] = test system: hippocampal slices from 3-4 week-old Wistar rats; experiment: In vitro LTP analysis, theta burst stimulation, fEPSP slope recording; format: cell-based, rat
From the text: The effect of long-term potentiation (LTP) which can be measured in vitro, is generally thought to correlate with memory. Stimulation of an afferent neuron or neuronal cell area results in membrane potentials of a downstream positioned neuron or neuronal cell area. Such membrane potentials are long-term potentiated at least over hours after stimulating the afferent neurons e.g. with a theta burst paradigm. Therefore, LTP is regarded as memory on cellular level. Electrophysiological LTP measurements on neurons incubated with a test compound in comparison to sham incubated neurons can be used to assess the compounds' potential to enhance memory (See generally Cooke and Bliss, Brain, 2006, 129 (1659), which is hereby incorporated by reference).
LTP is thought to be suitable as in vitro model for the assessment of memory function. Therefore, it allows analysis of test compounds, e.g. the compounds of the invention, e.g. 1-(8-cyclohexyl-5 isoquinoline-sulfonyl) 2-methyl-piperazine for memory enhancing potential. Experiments were done on hippocampal slices from 3-4 week-old Wistar rats. The rats were sacrificed by decapitation without prior anesthesia. […] A platinum/tungsten electrode was then lowered into the CA1 dendritic layer under visual control until stable amplitudes of the recorded fEPSP were achieved. […] Then, the test compound was washed in for a period of 30 min during which stimulation was continued at 0.05 Hz and fEPSPs were continuously recorded. […] All slices recorded simultaneously were treated with the same time schedule. From the recorded data, the amplitudes of the evoked fEPSP were automatically calculated by the recording software (Synchroslice data acquisition and analysis, LRE) as the negative peak of the postsynaptic signal with respect to baseline and plotted online. All recorded signals were digitally stored for later offline analysis, in particular for fEPSP negative slope calculation. From the stored single sweeps, the slope was calculated between 30% and 70% of the maximum fEPSP amplitude. […]

T15 sequence (P15735 whole entry): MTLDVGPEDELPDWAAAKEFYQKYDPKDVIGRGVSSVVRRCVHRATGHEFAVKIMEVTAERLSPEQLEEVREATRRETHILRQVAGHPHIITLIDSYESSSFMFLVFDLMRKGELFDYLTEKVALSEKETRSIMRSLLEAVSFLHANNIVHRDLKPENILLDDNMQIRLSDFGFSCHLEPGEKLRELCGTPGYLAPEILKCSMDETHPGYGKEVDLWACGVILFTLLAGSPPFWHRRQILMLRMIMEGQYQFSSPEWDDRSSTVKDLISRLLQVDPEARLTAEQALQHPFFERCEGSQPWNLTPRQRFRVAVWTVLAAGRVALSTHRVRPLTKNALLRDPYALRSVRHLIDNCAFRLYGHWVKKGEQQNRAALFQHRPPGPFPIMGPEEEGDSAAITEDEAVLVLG
T4 sequence (P49761 whole entry): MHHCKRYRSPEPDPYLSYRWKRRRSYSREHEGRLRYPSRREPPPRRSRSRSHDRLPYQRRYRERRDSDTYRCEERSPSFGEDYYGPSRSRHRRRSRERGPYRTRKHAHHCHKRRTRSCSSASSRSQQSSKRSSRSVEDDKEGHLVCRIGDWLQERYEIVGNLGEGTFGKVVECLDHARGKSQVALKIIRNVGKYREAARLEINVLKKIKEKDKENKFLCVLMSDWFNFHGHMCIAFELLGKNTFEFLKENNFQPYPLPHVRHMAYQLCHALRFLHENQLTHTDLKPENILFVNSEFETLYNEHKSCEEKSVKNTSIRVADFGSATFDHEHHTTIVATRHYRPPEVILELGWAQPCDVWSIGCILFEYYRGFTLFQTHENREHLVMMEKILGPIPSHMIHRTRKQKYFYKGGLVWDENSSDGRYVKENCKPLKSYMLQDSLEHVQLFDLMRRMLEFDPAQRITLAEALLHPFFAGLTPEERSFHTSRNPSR
T7 sequence (P49674 whole entry): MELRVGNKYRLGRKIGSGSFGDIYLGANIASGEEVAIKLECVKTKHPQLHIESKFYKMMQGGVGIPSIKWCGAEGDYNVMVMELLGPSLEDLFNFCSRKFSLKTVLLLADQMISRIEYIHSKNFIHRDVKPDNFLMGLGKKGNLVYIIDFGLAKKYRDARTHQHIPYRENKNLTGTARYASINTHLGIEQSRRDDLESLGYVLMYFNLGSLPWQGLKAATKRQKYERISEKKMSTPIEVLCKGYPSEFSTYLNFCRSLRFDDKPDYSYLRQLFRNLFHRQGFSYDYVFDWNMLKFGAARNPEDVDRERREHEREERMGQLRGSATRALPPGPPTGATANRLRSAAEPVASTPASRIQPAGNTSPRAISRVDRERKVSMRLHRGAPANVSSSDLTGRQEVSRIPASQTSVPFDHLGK
T12 sequence (Q12866 21-999): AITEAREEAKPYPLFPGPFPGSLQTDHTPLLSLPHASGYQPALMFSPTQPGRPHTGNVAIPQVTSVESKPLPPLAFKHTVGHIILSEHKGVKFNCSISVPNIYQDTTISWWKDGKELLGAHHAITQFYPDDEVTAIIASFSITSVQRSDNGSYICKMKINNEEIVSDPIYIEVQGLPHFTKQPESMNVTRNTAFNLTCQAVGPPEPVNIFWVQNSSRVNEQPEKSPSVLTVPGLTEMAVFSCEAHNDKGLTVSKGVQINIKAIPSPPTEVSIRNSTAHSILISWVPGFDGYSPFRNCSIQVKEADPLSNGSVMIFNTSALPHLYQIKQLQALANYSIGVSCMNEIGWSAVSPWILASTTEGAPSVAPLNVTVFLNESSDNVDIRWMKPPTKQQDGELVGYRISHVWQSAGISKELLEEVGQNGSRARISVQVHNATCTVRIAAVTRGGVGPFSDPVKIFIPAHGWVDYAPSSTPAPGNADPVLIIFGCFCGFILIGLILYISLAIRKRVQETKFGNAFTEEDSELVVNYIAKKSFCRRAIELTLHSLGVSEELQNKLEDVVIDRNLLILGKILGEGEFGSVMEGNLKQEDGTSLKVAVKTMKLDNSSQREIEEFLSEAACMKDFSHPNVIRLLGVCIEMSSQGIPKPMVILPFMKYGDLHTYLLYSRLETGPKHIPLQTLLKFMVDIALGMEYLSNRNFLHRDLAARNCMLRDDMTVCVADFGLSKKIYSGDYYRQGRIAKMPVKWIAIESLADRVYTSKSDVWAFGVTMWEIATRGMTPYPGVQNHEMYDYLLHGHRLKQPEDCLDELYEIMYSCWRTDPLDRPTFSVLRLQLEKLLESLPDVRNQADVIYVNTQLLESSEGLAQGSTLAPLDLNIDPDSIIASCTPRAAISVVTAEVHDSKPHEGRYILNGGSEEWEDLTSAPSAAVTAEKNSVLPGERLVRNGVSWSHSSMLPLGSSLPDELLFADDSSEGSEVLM
T16 sequence (Q9UK32 whole entry): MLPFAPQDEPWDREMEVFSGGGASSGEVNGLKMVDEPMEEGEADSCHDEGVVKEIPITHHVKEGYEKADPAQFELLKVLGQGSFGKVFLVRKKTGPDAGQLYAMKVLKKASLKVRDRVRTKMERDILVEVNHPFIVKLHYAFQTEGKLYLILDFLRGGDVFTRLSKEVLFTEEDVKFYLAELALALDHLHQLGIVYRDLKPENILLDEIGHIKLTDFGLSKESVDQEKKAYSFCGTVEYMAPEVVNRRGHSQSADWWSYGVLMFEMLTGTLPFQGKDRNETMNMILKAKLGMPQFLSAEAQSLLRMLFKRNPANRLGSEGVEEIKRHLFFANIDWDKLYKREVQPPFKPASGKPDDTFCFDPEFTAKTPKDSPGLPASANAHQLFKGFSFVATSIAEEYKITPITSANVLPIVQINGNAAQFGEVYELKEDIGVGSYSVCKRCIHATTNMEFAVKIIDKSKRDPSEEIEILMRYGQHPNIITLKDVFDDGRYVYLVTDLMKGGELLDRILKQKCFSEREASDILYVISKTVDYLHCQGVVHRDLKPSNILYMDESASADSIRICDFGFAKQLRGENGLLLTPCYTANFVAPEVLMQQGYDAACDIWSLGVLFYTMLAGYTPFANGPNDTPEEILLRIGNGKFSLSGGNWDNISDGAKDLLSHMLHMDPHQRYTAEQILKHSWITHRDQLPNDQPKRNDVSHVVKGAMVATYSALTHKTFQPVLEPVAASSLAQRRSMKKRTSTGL
T2 sequence (P30530 26-894): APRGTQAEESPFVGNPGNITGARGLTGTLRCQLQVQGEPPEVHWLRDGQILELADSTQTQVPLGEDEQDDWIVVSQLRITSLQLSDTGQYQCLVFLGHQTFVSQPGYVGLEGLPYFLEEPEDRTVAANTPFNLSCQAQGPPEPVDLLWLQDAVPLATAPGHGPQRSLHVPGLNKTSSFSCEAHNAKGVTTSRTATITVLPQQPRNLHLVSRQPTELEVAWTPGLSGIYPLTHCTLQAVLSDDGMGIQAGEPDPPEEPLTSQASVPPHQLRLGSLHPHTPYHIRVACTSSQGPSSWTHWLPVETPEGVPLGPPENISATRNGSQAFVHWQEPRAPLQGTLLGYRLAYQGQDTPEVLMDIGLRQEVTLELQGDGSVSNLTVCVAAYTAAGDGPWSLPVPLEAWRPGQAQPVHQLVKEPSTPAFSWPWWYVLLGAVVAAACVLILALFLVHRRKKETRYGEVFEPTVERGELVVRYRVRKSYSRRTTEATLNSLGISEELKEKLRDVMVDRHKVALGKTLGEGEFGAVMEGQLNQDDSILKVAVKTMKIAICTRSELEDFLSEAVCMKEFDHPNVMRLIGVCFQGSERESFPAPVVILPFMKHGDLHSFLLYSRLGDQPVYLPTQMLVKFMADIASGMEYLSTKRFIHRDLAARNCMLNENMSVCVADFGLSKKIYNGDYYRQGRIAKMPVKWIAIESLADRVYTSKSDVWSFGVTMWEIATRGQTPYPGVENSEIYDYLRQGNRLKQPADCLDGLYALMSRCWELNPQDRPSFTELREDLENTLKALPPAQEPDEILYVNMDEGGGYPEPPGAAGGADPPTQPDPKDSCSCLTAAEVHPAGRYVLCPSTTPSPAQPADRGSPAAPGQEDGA
T11 sequence (P53778 whole entry): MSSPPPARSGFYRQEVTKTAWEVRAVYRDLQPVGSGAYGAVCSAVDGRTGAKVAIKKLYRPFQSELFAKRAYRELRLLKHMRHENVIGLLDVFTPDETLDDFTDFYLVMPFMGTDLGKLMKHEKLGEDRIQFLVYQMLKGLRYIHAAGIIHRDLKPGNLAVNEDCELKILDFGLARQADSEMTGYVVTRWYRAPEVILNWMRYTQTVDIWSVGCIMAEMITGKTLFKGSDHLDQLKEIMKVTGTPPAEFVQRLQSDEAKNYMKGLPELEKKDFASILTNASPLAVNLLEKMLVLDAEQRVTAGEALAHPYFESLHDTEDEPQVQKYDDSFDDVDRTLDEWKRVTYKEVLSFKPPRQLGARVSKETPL
T6 sequence (P48730 whole entry): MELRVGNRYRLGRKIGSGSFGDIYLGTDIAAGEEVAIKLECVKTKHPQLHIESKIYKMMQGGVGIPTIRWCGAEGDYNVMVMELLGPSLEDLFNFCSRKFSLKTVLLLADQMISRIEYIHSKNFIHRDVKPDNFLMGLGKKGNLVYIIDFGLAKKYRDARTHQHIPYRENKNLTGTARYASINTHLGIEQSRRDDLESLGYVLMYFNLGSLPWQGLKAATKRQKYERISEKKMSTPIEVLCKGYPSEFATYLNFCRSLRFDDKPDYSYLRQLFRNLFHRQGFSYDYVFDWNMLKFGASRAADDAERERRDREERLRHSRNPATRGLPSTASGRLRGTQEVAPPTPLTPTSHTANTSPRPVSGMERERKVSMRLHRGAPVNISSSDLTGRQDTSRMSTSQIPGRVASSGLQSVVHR
T5 sequence (Q8N752 whole entry): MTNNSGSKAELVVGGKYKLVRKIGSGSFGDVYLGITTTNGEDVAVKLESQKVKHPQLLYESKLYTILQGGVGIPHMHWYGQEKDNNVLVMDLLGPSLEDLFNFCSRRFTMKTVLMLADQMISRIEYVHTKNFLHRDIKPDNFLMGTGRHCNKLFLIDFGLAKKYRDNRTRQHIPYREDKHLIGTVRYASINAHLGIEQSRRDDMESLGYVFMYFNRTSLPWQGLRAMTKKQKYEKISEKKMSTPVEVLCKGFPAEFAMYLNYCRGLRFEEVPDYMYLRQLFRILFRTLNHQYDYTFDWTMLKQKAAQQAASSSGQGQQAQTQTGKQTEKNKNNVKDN

Structure (SMILES): O=S(=O)(c1cccc2cnccc12)N1CCCNCC1 [Fasudil]
neurite outgrowth [1]: increase neurite outgrowth

binding (percentage of competition of the active-site directed ligand) [2]: more than 50%
binding (percentage of competition of the active-site directed ligand) [3]: more than 50%
binding (percentage of competition of the active-site directed ligand) [4]: more than 50%
binding (percentage of competition of the active-site directed ligand) [5]: more than 50%
binding (percentage of competition of the active-site directed ligand) [6]: more than 50%
binding (percentage of competition of the active-site directed ligand) [7]: more than 50%
binding (percentage of competition of the active-site directed ligand) [8]: more than 50%
binding (percentage of competition of the active-site directed ligand) [9]: more than 50%
binding (percentage of competition of the active-site directed ligand) [10]: more than 50%
binding (percentage of competition of the active-site directed ligand) [11]: more than 50%
binding (percentage of competition of the active-site directed ligand) [12]: more than 50%
binding (percentage of competition of the active-site directed ligand) [13]: more than 50%
binding (percentage of competition of the active-site directed ligand) [14]: more than 50%
binding (percentage of competition of the active-site directed ligand) [15]: more than 50%
binding (percentage of competition of the active-site directed ligand) [16]: more than 50%
binding (percentage of competition of the active-site directed ligand) [17]: more than 50%
binding (percentage of competition of the active-site directed ligand) [18]: more than 50%
binding (percentage of competition of the active-site directed ligand) [19]: more than 50%
binding (percentage of competition of the active-site directed ligand) [20]: more than 50%
inhibitory specificity across the kinase panel [21]: very selective kinase inhibitor
Structure (SMILES): CC1CNCCN1S(=O)(=O)c1ccc(C2CCCCC2)c2cnccc12 (stereo not drawn) [1-(8-cyclohexyl-5 isoquinoline-sulfonyl) 2-methyl-piperazine]
increase in EPSP slopes when the compound is removed ([22]; 100 μM concentration): most obvious and very strong
LTP induction (fEPSP slope) ([22]; compound washed in at increasing concentrations (1 μM, 10 μM and 100 μM), control slices about 140% of pre-stimulus levels): complete block of LTP-induction
EPSP slopes when the compound is removed ([22]; wash-out 30 min after LTP induction, 1 μM, 10 μM and 100 μM): increase in EPSP slopes
